Measured values from PubChem BioAssay (NCI).
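Five compound concentrations were applied to cells in 96-well plates for 48 hours; endpoints were derived by simple linear interpolation of the resulting dose-response curve. Abbreviation: GI50, concentration required for 50% inhibition of growth. The concentration for full growth arrest is given as TGI.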

Assays:
Test in all cases: NCI tumour cell line growth inhibition, 48 h
[1] = test system: 786-0 renal
[2] = test system: A498 renal
[3] = test system: HCC-2998 colon
[4] = test system: HCT-15 colon
[5] = test system: HT29 colon
[6] = test system: MALME-3M melanoma
[7] = test system: OVCAR-3 ovarian
[8] = test system: SN12C renal
[9] = test system: SNB-19 CNS
[10] = test system: UO-31 renal

Row | Structure (SMILES) | GI50 [1] [µM] | TGI [1] [µM] | GI50 [2] [µM] | TGI [2] [µM] | GI50 [3] [µM] | TGI [3] [µM] | GI50 [4] [µM] | TGI [4] [µM] | GI50 [5] [µM] | TGI [5] [µM] | GI50 [6] [µM] | TGI [6] [µM] | GI50 [7] [µM] | TGI [7] [µM] | GI50 [8] [µM] | TGI [8] [µM] | GI50 [9] [µM] | TGI [9] [µM] | GI50 [10] [µM] | TGI [10] [µM]
1 | Ic1ccccc1-c1ccccc1 | > 100 | > 100 | 65.1 | > 100 | > 100 | > 100 | > 100 | > 100 | > 100 | > 100 | 96.2 | > 100 | > 100 | > 100 | > 100 | > 100 | > 100 | > 100 | 74.5 | > 100
2 | C/C(=N/Nc1nc2ccccc2n1C)c1ccccn1 | 0.0638 | 10.6 | 0.123 | 0.81 | 0.493 | 15.6 | 0.0171 | 27.9 | 0.044 | 24.4 | 0.148 | 16.7 | < 0.0153 | 14.1 | 0.106 | 23 | 0.327 | > 100 | 0.0672 | 1.59
3 | NC(N)=N/N=C\c1cccc(OCc2ccccc2)c1 | 3.54 | 12.6 | 11.4 | 23.5 | 1.81 | 3.54 | 3.29 | 12.9 | 1.83 | 4.01 | 3.35 | 13.5 | 6.51 | 23 | 4.33 | 17.6 | 10.3 | 23.3 | 7.35 | 27.9
4 | O=C(CNc1ccc2c(c1)C(=O)c1ccccc1C2=O)Nc1ccc2c(c1)C(=O)c1ccccc1C2=O | 0.451 | 1.69 | 1.62 | 3.16 | 1.58 | 2.99 | 0.312 | 0.972 | 0.451 | 1.69 | 0.739 | 2.36 | 0.71 | 1.83 | 0.293 | 1 | 1.45 | 2.9 | 1.67 | 3.1
5 | COc1cc2cc(Oc3ccc(NC(=O)Nc4cccc(C(F)(F)F)c4)cc3)c(C)nc2cc1OC | 1.74 | 9.24 | 1.29 | 4.95 | 2.59 | 50 | 1.85 | 22.2 | 2.05 | 6.26 | 1.71 | 4.9 | 2.04 | 8.07 | 2.06 | 16.3 | 2.19 | 15 | 1.98 | 10.8
6 | COc1ccc(/C=C\c2cc(OC)c(OC)c(OC)c2)cc1OC(=O)c1cccc(Cn2cc(CCOC(=O)[C@H](N)Cc3cn(C)c4ccccc34)nn2)c1 | 0.111 | > 100 | < 0.01 |  | 0.0198 | 1.7 | < 0.01 | > 44 | 0.379 | > 20.9 | 0.081 | 25.6 | < 0.01 | 18.9 | < 0.01 | > 100 | < 0.01 | > 100 | 0.192 | > 45.1
7 | CC1(c2cccc3ccccc23)OC(=O)c2ccccc21 (stereo not given) |  | 71.3 |  | 68.3 |  | 35.6 |  | 63.7 |  | 53.8 |  | 53.4 |  | 58.1 |  | 67.8 |  | > 100 |  | 78.7
8 | CCC(CO)Nc1nc(NCc2ccccc2O)c2ncn(C(C)C)c2n1 (stereo not given) | 4.46 | > 100 | 3.66 | 18 | 0.215 | 6.98 | 2.25 | > 100 | 3.67 | 60.1 | 40.1 | > 100 | 3.1 | 19.8 | 2.77 | 37.5 | 3.3 | 76 | 0.0777 | 4.27
9 | CC(=O)[C@@]1(O)CC[C@H]2[C@@H]3C[C@H](C)C4=CC(=O)CC[C@]4(C)[C@H]3[C@@H](O)C[C@@]21C |  | > 100 |  | > 100 |  | > 100 |  | > 100 |  | > 100 |  | > 100 |  | > 100 |  | > 100 |  | > 100 |  | > 100
10 | O=C(/C=C/c1cccnc1)NCCCCC1CCCN(C(=O)c2ccccc2)C1 (stereo not given) | > 64.3 | > 100 | > 61.1 | > 100 | 0.974 | > 100 | < 0.01 | > 100 | < 0.01 | > 100 | > 44.5 | > 100 | > 47.9 | > 100 | < 0.01 | > 100 |  | > 100 | > 62.8 | > 100
11 | O=C1/C(=C/c2ccccc2)CN(C(=O)c2cccnc2)C/C1=C\c1ccccc1 | 2.07 | 4.57 | 2.19 | 5.42 | 0.939 | 2.27 | 0.331 | 1.38 | 0.241 | 0.563 | 4.78 | 18.9 | 0.505 | 1.71 | 2.39 | 7.96 | 1.49 | 10.8 | 1.4 | 2.9
12 | Nc1ncnc2c1nc(Cl)n2C1OC2COP(=O)(O)OC2C1O (stereo not given) |  | > 300 |  | > 300 |  | > 300 |  | > 300 |  | > 300 |  | > 300 |  | > 300 |  | > 300 |  | > 300 |  | > 300
13 | COC(=O)/C([Se]c1c(C)cc(C)cc1C)=C(\[Se]c1c(C)cc(C)cc1C)C(=O)OC |  | > 100 |  | > 100 |  | > 100 |  | > 100 |  | > 100 |  | > 100 |  | > 100 |  | > 100 |  | > 100 |  | > 100
14 | Cc1cc2nc(CCC(=O)O)c(=O)[nH]c2cc1C |  | > 100 |  | > 100 |  | > 100 |  | > 100 |  | > 100 |  | > 100 |  | > 100 |  | > 100 |  | > 100 |  | > 100
15 | COc1ccc2c(=O)c3ccoc3n(CC=C(C)C)c2c1 |  | > 100 |  | > 100 |  | > 100 |  | > 100 |  | > 100 |  | 18.7 |  | > 100 |  | > 100 |  | > 100 |  | > 100
16 | COc1cc2c3c(n(CCCN)c(=O)c2cc1OC)-c1cc2c(cc1/C3=C\CCN)OCO2 | 2.05 | 9.34 | 35.9 | 97.2 | 0.382 | 1.77 | 27 | > 100 | 0.373 | 10.6 | 1.1 | 4.26 |  | > 23.5 | 0.0627 | 3.81 | 3.46 | > 30.9 | 13.5 | 45.7
17 | COc1ccccc1CCN=C1NC(=O)/C(=C/c2ccc3ncccc3c2)S1 | 8.24 | > 25 | 3.45 | 12.3 | 8.7 | > 25 | 1.32 | > 25 | 2.47 | 15.7 | 7.44 | > 23 | 4.99 | 12.2 | 6.93 | > 25 | 4.93 | > 25 | 5.25 | 16.3
18 | O=C1C(=O)c2ccccc2C(O)=C1CC=C(Br)Br | 3.99 | > 100 | 6.21 | 31.3 | 18.6 | > 100 | 0.368 | > 100 | 3.25 | 53.5 | 18.2 | 60.4 | 8.75 | 34.7 | 5.7 | 77.9 | 4.67 | 77.8 | 6.13 | 62.1
19 | CC(C)(O)CS(=O)(=O)Nc1ccc2c(c1)CCN(C(=O)COc1cccnc1)C2 | > 100 | > 100 | > 100 | > 100 | > 26.5 | > 100 | 0.476 | > 100 | 0.743 | > 100 | > 100 | > 100 | > 100 | > 100 | 0.0677 | > 100 |  | > 100 | > 100 | > 100
20 | CCCCCCCCCCCCCC(=O)CC(=O)c1c(O)cccc1O |  | > 100 |  | > 100 |  | > 100 |  | 58.8 |  | > 100 |  | 92 |  | 37.3 |  | > 100 |  | 99.2 |  | > 100
21 | C/C(=N\Nc1cc(C)c2cc(C)ccc2n1)c1ccccn1 | 0.105 | 1.27 | 0.134 | 3.68 | < 0.0501 | 1.47 |  | 1.93 | < 0.0407 | 1.65 | 0.123 | 1.27 | < 0.0206 | 1.31 | 0.0607 | 4.12 | 0.145 | 13.7 | < 0.0447 | 0.322
22 | CC1(C)N=C(N)N=C(N)N1c1ccc(OCCCCOc2ccc(S(=O)(=O)F)cc2)c(Cl)c1 | 0.355 | 18.9 | 1.1 | 19.9 | 0.485 | 18.2 | 1.12 | > 100 | 0.0519 | 13.4 | 2.38 | 37.7 | 0.655 | 16.6 | 0.0575 | 15.2 | 0.259 | 17.8 | 24.4 | > 100
23 | Cn1c(/C=C(\C#N)c2ccccc2)nc2c(N3CCOCC3)nc(Cl)nc21 | 1.56 | 3.05 | 1.51 | 2.87 | 1.82 | 3.33 | 0.233 | 0.641 | 0.386 | 1.47 | 1.45 | 2.86 | 0.673 | 1.88 | 1.12 | 2.48 | 1.6 | 3.09 | 0.553 | 1.88
24 | Cc1cc2nc3c4cc(N)ccc4n(CCN(C)C)c3nc2cc1C | 1.11 | 12.6 | 0.763 | 2.32 | 0.876 | 3.85 | 0.499 | 10.2 | 0.478 | 6.59 | 1.27 | 3.08 | 1.39 | 6.87 | 0.484 | 11.7 | 0.669 | 11.4 | 0.439 | 4.8
25 | C=C1C(=O)O[C@H]2[C@H]1CC/C(Cn1cc(-c3cc(C(F)(F)F)cc(C(F)(F)F)c3)nn1)=C\CC[C@@]1(C)O[C@@H]21 | 0.163 | 0.311 | 0.437 | 1.71 | 1.17 | 2.51 | 0.191 | 0.454 | 0.19 | 0.486 | 0.521 | 2.16 | 0.152 | 0.358 | 0.702 | 2.38 | 1.71 | 3.58 | 0.382 | 1.58
26 | Oc1cc(O)c2c(-c3c(O)c(-c4ccc(O)c(O)c4)[o+]c4cc(O)cc(O)c34)c(O)c(-c3ccc(O)c(O)c3)[o+]c2c1 |  | > 100 |  | > 100 |  | > 100 |  | > 100 |  | > 100 |  | 84.6 |  | 46.2 |  | > 100 |  | > 100 |  | 78.3
